Laboratory results reported in publication PMC12645437, “Orthogonal IMiD-Degron Pairs Induce Selective Protein Degradation in Cells” (ACS Chemical Biology, 2025).
Several values for one entry are separate records, joined by “and”; a condition that tells them apart may be missing. Identical values can stand only once.

Assays:
[1] = target: T1, endogenous IKZF3 in Jurkat cells (Homo sapiens, UniProt Q96SW2+Q9UKT9); assay: Western blot for endogenous IKZF3; assay type: cell-based; conditions: 18 h; for endogenous IKZF3 levels (Western blot): transduced Jurkat cells; for degradation of endogenous IKZF3 (Western blot): untransduced Jurkat cells
T1 construct: endogenous in cells; host or cells: Jurkat (transduced with ZF-EGFP constructs, or untransduced)

[2] = tested on: library of 8380 IKZF3 degrons fused to EGFP in Jurkat cells; assay: Pooled mutant ZF degron library screen (FACS EGFPlow vs EGFP+, NGS), 18 h; assay type: cell-based, human;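 for logFC: Log2 fold change of EGFPlow over EGFP+ representation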
[3] = target: T2, WT IKZF3-derived degron fused to EGFP (Homo sapiens, UniProt Q96SW2+Q9UKT9); assay: Ratiometric EGFP:mCherry flow cytometry degradation assay, 18 h; assay type: cell-based; conditions: Jurkat; for Degradation pDC50 WT: Fig 2B; for DC50 / pDC50: WT degron, Fig 5A
T2 construct: Plasmid: pLVX-Sprout-IKZF3 130-189aa (WT); expressed in transfected cells

[4] = target: T3, endogenous IKZF1 in Jurkat cells (Homo sapiens, UniProt Q13422+Q96SW2); assay: Endogenous IKZF1 immunostaining, fluorescent antibody flow cytometry assay; assay type: cell-based; conditions: 18 h
T3 construct: endogenous in cells; host or cells: Jurkat (untransduced for immunostaining; WEIS-EGFP-transduced for the blot)
Method: As we sought to screen a large number of mutant ZF degrons with different mutation combinations, we pursued a library screen approach similar to that previously employed by Sievers et al. and Jan et al. , Only the most promising compounds from the original set of 36 were used for the library screen. To help narrow the candidates, a subset of compounds was tested for endogenous IKZF1 degradation in Jurkat cells using a fluorescent antibody flow cytometry assay (Figure S5). […] Thalidomide and lenalidomide were also included as controls.
Endogenous IKZF1 Immunostaining
37 °C and 5% CO2. Following incubation, cells were stained with LIVE/DEAD™ Fixable Aqua Dead Cell Stain (Thermo) diluted 1000X in PBS for 30 min at room temperature and then incubated with Human TruStain FcX block (Biolegend) diluted 40X in PBS + 1% FBS (Gibco) for 10 min at room temperature. Intranuclear staining of IKZF1 was carried out using the Transcription Factor Buffer Set (BD Bioscience) according to the manufacturer's protocol and staining with IKZF1 AF488 antibody (clone R32-1149, BD Bioscience) diluted 40X for 30 minutes at room temperature. Cells were acquired on a Cytoflex S (Beckman Coulter) and data analysed using FlowJo 10.8.1 9 (BD).

[5] = target: T4, Q147A mutant degron (ANQS) fused to EGFP (Homo sapiens, UniProt Q96SW2+Q9UKT9, Q147A); assay: Ratiometric EGFP:mCherry flow cytometry degradation assay, 18 h; assay type: cell-based; conditions: for Dmax: Fig 2B, read-out: DMax Q147A/%
T4 construct: pLVX-Sprout-IKZF3 130-189aa Q147A (ANQS); expressed in transfected cells

[6] = target: APIS mutant ZF degron fused to EGFP (Homo sapiens, UniProt Q96SW2+Q9UKT9, N149P/Q147A/Q150I); assay: as above
[7] = target: WEIS mutant ZF degron fused to EGFP (Homo sapiens, UniProt Q96SW2+Q9UKT9, N149E/Q147W/Q150I); assay: as above
[8] = tested on: Jurkat cells; assay: TMTpro quantitative proteomics, 16 h; conditions: Jurkat, 10 μM, 16 h; 9644 quantified proteins
Method: Quantitative proteomics screens were carried out in untransduced Jurkat cells, embryonic stem cells (ESCs), and the multiple myeloma cell line, MM.1S. We used Jurkat cells, as our work up to this point had employed this cell line, and we selected ESCs and MM.1S cells as they express known CRBN neosubstrates, including IKZF1, IKZF3, RAB28, RNF166, SALL4, ZFP91, and ZNF827.
Proteomics - cell lysis and protein digestion
The viability of Jurkat cells was tested after 16-h treatment with corresponding chemicals
viable cells in each condition. Next, ~10^7 cells per condition were collected by centrifugation (1000 rpm), washed twice with ice-cold PBS, and lysed in RIPA buffer [50 mM HEPES pH 7.4, 150 mM NaCl, 1% sodium deoxycholate, 1% NP-40, 0.1% SDS, 10 mM sodium pyrophosphate, 10 mM β-glycerophosphate, 2.5 mM MgCl2, 200 µM TCEP, phosphatase and protease inhibitor cocktail (in-house)], to produce whole cell extracts. Whole-cell extracts were sonicated, and protein concentrations were determined using the Bradford assay. Protein extracts (100 µg) were subjected to disulfide bond reduction with 5 mM TCEP (10 min) and alkylation with 25 mM chloroacetamide (20 min). Methanol–chloroform precipitation was performed prior to protease digestion. In brief, four parts of neat methanol were added to each sample and vortexed, one part chloroform was added to the sample and vortexed, and finally, three parts water was added to the sample and vortexed. The sample was centrifuged at 8000 rpm for 5 min at room temperature and subsequently washed twice with 100% methanol. Samples were resuspended in 100 mM EPPS pH8.5 containing
0.1% RapiGest and digested at 37 °C for 6 h with trypsin at a 100:1 protein-to-protease ratio.
Samples were then subjected to TMTpro
labeling. The preparation of MM1S cell extracts was conducted using the same procedure as for
Jurkat cells. ESC cells were plated onto 6 cm dishes 24 hours prior to the chemical treatment.
Following the chemical treatment, the cells on the dish were washed with DPBS four times, after
which RIPA buffer was added directly to the dish, and the lysate was collected using a scraper.
The whole cell lysates were then processed similarly to the Jurkat cell lysates.
Proteomics - Tandem mass tag labeling
Proline-based reporter isobaric Tandem Mass Tag (TMTpro) labeling of dried peptide samples
resuspended in 100 mM EPPS pH 8.5, was carried out as follows. TMTpro reagent was added to
samples (100 µg peptide), along with acetonitrile, to achieve a final acetonitrile concentration of
approximately 30% (v/v). Following incubation at room temperature for 1 h, the labeling efficiency
of a small aliquot was tested. The reaction was then quenched with hydroxylamine to a final
concentration of 0.5% (v/v) for 15 min. The TMTpro-labeled samples were pooled together at a
1:1 ratio. The sample was vacuum centrifuged to near dryness and subjected to C18 solid-phase
The dried TMTpro-labeled sample was resuspended in 100 μL of 10 mM NH4HCO3 pH 8.0 and
fractionated using basic pH reverse phase HPLC 40. Briefly, samples were offline fractionated over
a 90 min run, into 96 fractions by high pH reverse-phase HPLC (Agilent LC1260) through an aeris
peptide xb-c18 column (Phenomenex; 250 mm × 3.6 mm) for total proteome with mobile phase A
containing 5% acetonitrile and 10 mM NH4HCO3, and mobile phase B containing 90% acetonitrile

[9] = target: T5, endogenous IKZF1 (Homo sapiens, UniProt Q13422+Q96SW2); assay: Western blot for IKZF1 in WEIS-EGFP Jurkat cells; assay type: cell-based; conditions: Jurkat transduced with EGFP-WEIS, 18 h
T5 construct: endogenous in cells; host or cells: Jurkat (untransduced for immunostaining; WEIS-EGFP-transduced for the blot)

[10] = WT degron, residues 146/147/149/150/152/153/154/155/167: FQNQGASFL
[11] = degron residues 146/147/149/150/152/153/154/155/167: FADIGAAFL
[12] = degron residues 146/147/149/150/152/153/154/155/167: FADIGACFL
[13] = degron residues 146/147/149/150/152/153/154/155/167: FADIGADFL
[14] = degron residues 146/147/149/150/152/153/154/155/167: FADIGAEFL
[15] = degron residues 146/147/149/150/152/153/154/155/167: FWEIGACFL
[16] = degron residues 146/147/149/150/152/153/154/155/167: FWEIGAKFL (WEIK)

T4 sequence (Q9UKT9 130-189 Q147A): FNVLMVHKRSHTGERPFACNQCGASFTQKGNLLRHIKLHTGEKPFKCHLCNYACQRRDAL
T4 sequence (Q96SW2 whole entry, the tested form may be a part): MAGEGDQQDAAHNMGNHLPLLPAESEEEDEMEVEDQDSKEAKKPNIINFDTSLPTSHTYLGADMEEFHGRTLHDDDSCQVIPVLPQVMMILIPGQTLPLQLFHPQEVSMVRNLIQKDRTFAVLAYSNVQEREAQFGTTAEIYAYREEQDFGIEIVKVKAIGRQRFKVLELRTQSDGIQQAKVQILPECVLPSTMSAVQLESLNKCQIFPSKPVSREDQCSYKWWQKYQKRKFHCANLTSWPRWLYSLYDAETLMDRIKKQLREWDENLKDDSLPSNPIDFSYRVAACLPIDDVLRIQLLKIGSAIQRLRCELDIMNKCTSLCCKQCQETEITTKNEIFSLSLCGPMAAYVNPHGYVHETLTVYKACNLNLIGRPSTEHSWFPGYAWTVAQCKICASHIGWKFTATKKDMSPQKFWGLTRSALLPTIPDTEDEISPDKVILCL
T4 sequence (Q16531 whole entry partner, the tested form may be a part): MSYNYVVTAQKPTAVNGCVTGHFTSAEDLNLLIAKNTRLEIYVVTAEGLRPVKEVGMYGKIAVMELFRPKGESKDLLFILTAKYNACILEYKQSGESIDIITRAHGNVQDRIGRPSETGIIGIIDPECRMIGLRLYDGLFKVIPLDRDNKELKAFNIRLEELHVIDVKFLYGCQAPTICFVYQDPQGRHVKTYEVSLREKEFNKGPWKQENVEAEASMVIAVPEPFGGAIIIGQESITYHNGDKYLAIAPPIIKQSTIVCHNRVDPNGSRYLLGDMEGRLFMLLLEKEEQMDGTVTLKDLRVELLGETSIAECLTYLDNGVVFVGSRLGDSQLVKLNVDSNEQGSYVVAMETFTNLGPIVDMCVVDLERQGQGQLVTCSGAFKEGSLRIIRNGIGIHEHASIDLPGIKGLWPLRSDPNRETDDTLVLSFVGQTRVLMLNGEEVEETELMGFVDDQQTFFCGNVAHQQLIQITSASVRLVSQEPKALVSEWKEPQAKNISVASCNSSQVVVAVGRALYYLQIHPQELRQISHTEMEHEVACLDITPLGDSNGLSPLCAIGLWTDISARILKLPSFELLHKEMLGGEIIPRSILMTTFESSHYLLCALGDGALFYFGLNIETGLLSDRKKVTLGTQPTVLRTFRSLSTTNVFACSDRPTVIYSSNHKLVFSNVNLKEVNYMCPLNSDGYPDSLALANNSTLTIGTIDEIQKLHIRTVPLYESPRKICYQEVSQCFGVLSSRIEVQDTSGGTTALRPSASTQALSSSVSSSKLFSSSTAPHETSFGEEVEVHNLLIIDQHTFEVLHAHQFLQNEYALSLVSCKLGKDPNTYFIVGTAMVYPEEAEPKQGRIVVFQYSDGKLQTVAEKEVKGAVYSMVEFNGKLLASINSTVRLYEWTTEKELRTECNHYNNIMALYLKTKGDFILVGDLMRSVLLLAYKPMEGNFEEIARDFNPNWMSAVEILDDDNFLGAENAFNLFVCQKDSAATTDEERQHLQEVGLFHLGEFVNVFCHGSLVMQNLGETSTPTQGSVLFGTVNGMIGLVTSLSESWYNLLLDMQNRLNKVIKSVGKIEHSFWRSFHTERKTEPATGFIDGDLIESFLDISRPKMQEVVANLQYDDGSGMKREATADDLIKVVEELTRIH
Sequence of WEIS mutant ZF degron fused to EGFP (Q9UKT9 130-189 Q147W/N149E/Q150I): as the sequence (Q9UKT9 130-189 Q147A) above, with A18W, N20E, Q21I counted along it
Sequence of WEIS mutant ZF degron fused to EGFP (Q96SW2 whole entry, the tested form may be a part): as the sequence (Q96SW2 whole entry, the tested form may be a part) above
Sequence of WEIS mutant ZF degron fused to EGFP (Q16531 whole entry partner, the tested form may be a part): as the sequence (Q16531 whole entry partner, the tested form may be a part) above
T2 sequence (Q9UKT9 130-189): as the sequence (Q9UKT9 130-189 Q147A) above, with A18Q counted along it
T2 sequence (Q96SW2 whole entry, the tested form may be a part): as the sequence (Q96SW2 whole entry, the tested form may be a part) above
T2 sequence (Q16531 whole entry partner, the tested form may be a part): as the sequence (Q16531 whole entry partner, the tested form may be a part) above
Sequence of APIS mutant ZF degron fused to EGFP (Q9UKT9 130-189 Q147A/N149P/Q150I): as the sequence (Q9UKT9 130-189 Q147A) above, with N20P, Q21I counted along it
Sequence of APIS mutant ZF degron fused to EGFP (Q96SW2 whole entry, the tested form may be a part): as the sequence (Q96SW2 whole entry, the tested form may be a part) above
Sequence of APIS mutant ZF degron fused to EGFP (Q16531 whole entry partner, the tested form may be a part): as the sequence (Q16531 whole entry partner, the tested form may be a part) above
T1 sequence (Q9UKT9 whole entry): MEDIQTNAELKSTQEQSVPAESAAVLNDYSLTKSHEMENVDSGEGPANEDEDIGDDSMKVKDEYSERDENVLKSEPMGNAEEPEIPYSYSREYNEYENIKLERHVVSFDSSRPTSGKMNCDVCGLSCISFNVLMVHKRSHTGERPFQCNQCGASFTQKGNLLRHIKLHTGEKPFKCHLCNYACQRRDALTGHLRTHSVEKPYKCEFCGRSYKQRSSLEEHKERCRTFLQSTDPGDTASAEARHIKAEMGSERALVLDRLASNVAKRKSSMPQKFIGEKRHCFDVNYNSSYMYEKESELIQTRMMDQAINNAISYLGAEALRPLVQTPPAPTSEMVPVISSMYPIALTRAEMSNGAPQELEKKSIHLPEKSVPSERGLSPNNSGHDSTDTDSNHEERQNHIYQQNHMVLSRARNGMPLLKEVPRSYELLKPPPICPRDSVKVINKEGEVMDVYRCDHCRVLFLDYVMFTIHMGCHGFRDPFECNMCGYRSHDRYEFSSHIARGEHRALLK
T1 sequence (Q96SW2 whole entry): as the sequence (Q96SW2 whole entry, the tested form may be a part) above
T1 sequence (Q16531 whole entry partner): as the sequence (Q16531 whole entry partner, the tested form may be a part) above
T3 sequence (Q13422 whole entry): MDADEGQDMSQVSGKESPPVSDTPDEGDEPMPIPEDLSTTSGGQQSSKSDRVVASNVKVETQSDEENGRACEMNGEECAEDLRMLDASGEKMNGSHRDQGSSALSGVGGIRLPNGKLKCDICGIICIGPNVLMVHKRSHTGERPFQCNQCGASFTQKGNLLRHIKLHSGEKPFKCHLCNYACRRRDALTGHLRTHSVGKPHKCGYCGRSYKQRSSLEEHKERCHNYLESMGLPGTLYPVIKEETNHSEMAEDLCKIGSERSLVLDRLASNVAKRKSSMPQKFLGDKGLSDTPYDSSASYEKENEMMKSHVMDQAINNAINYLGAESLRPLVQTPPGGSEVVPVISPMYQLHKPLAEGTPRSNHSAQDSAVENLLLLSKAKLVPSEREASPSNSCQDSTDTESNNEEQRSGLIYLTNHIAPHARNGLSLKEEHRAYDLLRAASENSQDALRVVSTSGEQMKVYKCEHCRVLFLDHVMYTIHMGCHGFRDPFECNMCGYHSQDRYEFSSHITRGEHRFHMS
T3 sequence (Q96SW2 whole entry): as the sequence (Q96SW2 whole entry, the tested form may be a part) above
T3 sequence (Q16531 whole entry partner): as the sequence (Q16531 whole entry partner, the tested form may be a part) above
T5 sequence (Q13422 whole entry): as the sequence (Q13422 whole entry) above
T5 sequence (Q96SW2 whole entry): as the sequence (Q96SW2 whole entry, the tested form may be a part) above
T5 sequence (Q16531 whole entry partner): as the sequence (Q16531 whole entry partner, the tested form may be a part) above

CC(C)(C)c1ccc2c(c1)C(=O)N(C1CCC(=O)NC1=O)C2=O (centres unmarked) [Compound 19]
endogenous IKZF3 levels (Western blot) [1]: remained unaffected | degradation of endogenous IKZF3 (Western blot) [1]: do not induce degradation of endogenous IKZF3 | Log2FC [2, 10]: -1.8291 and -1.83 | logFC [2, 11]: 3.42 | logFC [2, 12]: 2.8476 | logFC [2, 13]: 0.3339 | logFC [2, 14]: 0.9661 | Log2FC ([2]; degron residues 146/147/149/150/152/153/154/155/167: FAEIGAAFL): 3.8965 | Log2FC ([2]; degron residues 146/147/149/150/152/153/154/155/167: FAEIGARFL): 3.8372 | Log2FC ([2]; degron residues 146/147/149/150/152/153/154/155/167: FAEVGAKFL (AEVK)): 3.9176 and 3.92 and 3.918 | Log2FC ([2]; degron residues 146/147/149/150/152/153/154/155/167: FAEVGARFL): 3.9084 | Log2FC ([2]; degron residues 146/147/149/150/152/153/154/155/167: FAEVGASFL): 3.8698 | Log2FC ([2]; degron residues 146/147/149/150/152/153/154/155/167: FANQGASFL (ANQS)): -0.98 | Log2FC ([2]; degron residues 146/147/149/150/152/153/154/155/167: FAPIGASFL (APIS)): 3.73 | Log2FC ([2]; degron residues 146/147/149/150/152/153/154/155/167: FFDIGAPFL (FDIP)): 3.9195 and 3.92 and 3.919 | Log2FC ([2]; degron residues 146/147/149/150/152/153/154/155/167: FFEVGAPFL (FEVP)): 3.9979 and 4.00 and 3.998 | Log2FC ([2]; degron residues 146/147/149/150/152/153/154/155/167: FFPIGAPFL): 3.9164 | Log2FC ([2]; degron residues 146/147/149/150/152/153/154/155/167: FGEVGARFL): 3.8587 | Log2FC ([2]; degron residues 146/147/149/150/152/153/154/155/167: FGPIGACFL): 3.9002 | Log2FC ([2]; degron residues 146/147/149/150/152/153/154/155/167: FGPVGACFL): 3.8841 | Log2FC ([2]; degron residues 146/147/149/150/152/153/154/155/167: FGPVGAMFL): 3.8585 | Log2FC ([2]; degron residues 146/147/149/150/152/153/154/155/167: FHEIGAPFL (HEIP)): 4.0013 and 4.00 and 4.001 | Log2FC [2, 15]: 3.8152 | Log2FC [2, 16]: 3.9155 and 3.96 and 3.955 | Log2FC ([2]; degron residues 146/147/149/150/152/153/154/155/167: FYEIGAKFL): 3.9035 | Log2FC ([2]; degron residues 146/147/149/150/152/153/154/155/167: FYEIGAPFL): 3.8608 | Log2FC ([2]; degron residues 146/147/149/150/152/153/154/155/167: FYEVGAAFL): 3.8726 | Log2FC ([2]; degron residues 146/147/149/150/152/153/154/155/167: FYNIGAPFL): 3.8168 | Log2FC ([2]; degron residues 146/147/149/150/152/153/154/155/167: FYPIGAPFL): 3.8626 | Degradation pDC50 WT [3]: 6.05 | DC50 [3]: 759 nM | pDC50 [3]: 6.12 | degradation of endogenous IKZF1 [4]: did not induce degradation of endogenous IKZF1 | DC50 ([5]; ANQS, Jurkat, 18 h, Fig 5A): 537 nM | pDC50 ([5]; ANQS, Jurkat, 18 h, Fig 5A): 6.27 | Selectivity (WT/mutant) ([5]; DC50(WT)/DC50(ANQS), Fig 5A): 1.4 | Dmax ([5]; Jurkat, 18 h): 87% | DC50 ([6]; APIS, Jurkat, 18 h): 74.1 nM | pDC50 ([6]; APIS, Jurkat, 18 h): 7.13 | Selectivity (WT/mutant) ([6]; DC50(WT)/DC50(APIS)): 10.2 and 10

CN1CCN(c2ccc3c(c2)C(=O)N(C2CCC(=O)NC2=O)C3=O)CC1 (centres unmarked) [Compound 23]
endogenous IKZF3 levels (Western blot) [1]: remained unaffected | degradation of endogenous IKZF3 (Western blot) [1]: do not induce degradation of endogenous IKZF3 | Log2FC [2, 10]: -1.4561 and -1.46 | logFC [2, 11]: 2.104 | logFC [2, 12]: 0.9928 | logFC [2, 13]: -0.7621 | logFC [2, 14]: -0.08962 | Log2FC ([2]; degron residues 146/147/149/150/152/153/154/155/167: FWDIGAAFL (WDIA)): 4.2601 and 4.26 | Log2FC ([2]; degron residues 146/147/149/150/152/153/154/155/167: FWDIGANFL): 4.2762 and 4.276 | Log2FC ([2]; degron residues 146/147/149/150/152/153/154/155/167: FWDIGASFL): 4.2199 | Log2FC ([2]; degron residues 146/147/149/150/152/153/154/155/167: FWDVGAAFL): 4.1742 | Log2FC ([2]; degron residues 146/147/149/150/152/153/154/155/167: FWDVGAQFL): 4.2369 | Log2FC ([2]; degron residues 146/147/149/150/152/153/154/155/167: FWDVGASFL): 4.2017 | Log2FC [2, 15]: 4.1830 | Log2FC ([2]; degron residues 146/147/149/150/152/153/154/155/167: FWEIGAHFL): 4.1861 | Log2FC [2, 16]: 4.1692 | Log2FC ([2]; degron residues 146/147/149/150/152/153/154/155/167: FWEIGASFL (WEIS)): 4.4149 and 4.45 and 4.449 | Log2FC ([2]; degron residues 146/147/149/150/152/153/154/155/167: FWEQGASFL): 4.1915 | Log2FC ([2]; degron residues 146/147/149/150/152/153/154/155/167: FWEVGAQFL): 4.1344 | Log2FC ([2]; degron residues 146/147/149/150/152/153/154/155/167: FWEVGASFL): 4.2567 and 4.257 | Log2FC ([2]; degron residues 146/147/149/150/152/153/154/155/167: FWNIGAQFL (WNIQ)): 4.2715 and 4.27 and 4.275 | Log2FC ([2]; degron residues 146/147/149/150/152/153/154/155/167: FWNQGASFL (WNQS)): 3.90 | Log2FC ([2]; degron residues 146/147/149/150/152/153/154/155/167: FWNVGASFL): 4.1357 | Log2FC ([2]; degron residues 146/147/149/150/152/153/154/155/167: FWPVGAQFL): 4.1974 | Log2FC ([2]; degron residues 146/147/149/150/152/153/154/155/167: FYEIGASFL): 4.1371 | Log2FC ([2]; degron residues 146/147/149/150/152/153/154/155/167: FYEVGAEFL): 4.1417 | Log2FC ([2]; degron residues 146/147/149/150/152/153/154/155/167: FYEVGASFL): 4.2356 | Degradation pDC50 WT [3]: 5.96 | DC50 [3]: 631 nM | pDC50 [3]: 6.20 | Selectivity (WT/mutant) ([7]; DC50(WT)/DC50(WEIS)): 35 | DC50 ([7]; WEIS, Jurkat, 18 h): 18.2 nM | pDC50 ([7]; WEIS, Jurkat, 18 h): 7.74 | proteins degraded (quantitative proteomics) [8]: no major effect on any of the 9644 quantified proteins | degradation of endogenous IKZF1 (Western blot) [9]: showed no degradation | degradation of endogenous IKZF1 [4]: did not induce degradation of endogenous IKZF1 | Dmax ([5]; Jurkat, 18 h): 79%
